pIC50: −log10 of the molar value. Like-named read-outs stand apart in the source and are kept apart here.

What all share (type): biochemical
Test [1] has as its target T1, recombinant alpha-glucosidase II (murine full-length glucosidase II, alpha and beta subunits, Glu 2) (Mus musculus, UniProt Q8BHN3).
T1 construct: made in house; host or cells: HEK-293T cells transduced with BacMam viruses (75% alpha, 25% beta); protein harvested from culture supernatant
The experiment in a line: Alpha-glucosidase II assay (4-methylumbelliferyl-alpha-D-pyranoside substrate, fluorescence).

Test [2] has as its target recombinant human GAA (acid alpha-glucosidase) (Homo sapiens, UniProt P10253). Kind of test: Acid alpha-glucosidase (GAA) assay (4-methylumbelliferyl-alpha-D-pyranoside substrate, fluorescence). The procedure: Acid alpha-glucosidase (GAA): To analyze inhibitory effects of a test compound, commercially available recombinant human GAA was incubated with multiple dilutions of test compound for 60 minutes at 37° C. 4-methylumbelliferyl-alpha-D-pyranoside was then introduced to the mixture as the substrate. 1,4-methyllumbelliferone is generated, and after an incubation for 20 minutes at 37° C., the reaction was stopped with the stop solution (0.5M glycine 0.3M NaOH pH 10). 1,4-methyllumbelliferone is detected by fluorescence (excitation at 365 nm, emission at 440 nm). Relative fluorescence compared to untreated enzymatic activity and test compound concentration is plotted as a function of percent inhibition. The IC50 is determined using a 4-PL curve fit as the measure of relative inhibitory activity of each test compound (see Table 3).

Test [3] has as its target T2, recombinant human GBA (beta-glucocerebrosidase) (Homo sapiens, UniProt P04062).
T2 sequence (P04062 40-536): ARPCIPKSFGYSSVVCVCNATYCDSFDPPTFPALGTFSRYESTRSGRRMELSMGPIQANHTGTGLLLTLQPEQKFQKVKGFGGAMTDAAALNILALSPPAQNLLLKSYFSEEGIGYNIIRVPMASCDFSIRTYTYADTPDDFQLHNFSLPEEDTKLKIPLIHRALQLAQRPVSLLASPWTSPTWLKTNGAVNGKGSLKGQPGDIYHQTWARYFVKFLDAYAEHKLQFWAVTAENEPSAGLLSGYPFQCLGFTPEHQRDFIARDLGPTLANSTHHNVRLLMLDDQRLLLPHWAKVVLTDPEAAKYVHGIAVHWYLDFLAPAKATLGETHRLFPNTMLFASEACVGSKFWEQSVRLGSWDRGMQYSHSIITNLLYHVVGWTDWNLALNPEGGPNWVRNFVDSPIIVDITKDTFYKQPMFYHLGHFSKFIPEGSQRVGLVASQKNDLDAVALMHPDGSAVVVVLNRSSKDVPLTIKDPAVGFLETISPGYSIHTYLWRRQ
Kind of test: Beta-glucocerebrosidase (GBA, glucosylceramidase) assay (4-methylumbelliferyl-beta-D-pyranoside substrate, fluorescence). The procedure: Beta-glucocerebrosidase (GBA, also referred to glucosylceramidase): To analyze inhibitory effects of a test compound, commercially available recombinant human GBA was incubated with multiple dilutions of test compound for 60 minutes at 37° C. 4-methylumbelliferyl-beta-D-pyranoside was then introduced to the mixture as substrate. Following incubation for 60 minutes at 37° C., 1,4-methyllumbelliferone was generated, and the reaction was stopped with the stop solution (0.5 M glycine; 0.3 M NaOH, pH 10). 1,4-methyllumbelliferone was detected by fluorescence (excitation at 365 nm, emission at 440 nm). Relative fluorescence compared to untreated enzymatic activity and test compound concentration is then plotted as a function of percent inhibition. The IC50 was determined using a 4-PL curve fit as the measure of relative inhibitory activity of each test compound (see Table 3).

For test [4], the target named is rat maltase (partially purified alpha-glucosidase from intestinal rat powder). Kind of test: Intestinal alpha-glucosidase assay, maltose substrate (Glucose GO Kit). The method, then: (§1) Intestinal alpha-glucosidases (rat maltase and sucrase): Intestinal alpha-glucosidases act upon 1,4-alpha-glucoside bonds, breaking down disaccharides to glucose. To perform this assay, partially purified alpha-glucosidase from intestinal rat powder was incubated for 60 minutes at 37° C. with multiple dilutions of test compounds. Maltose or Sucrose respectively was then introduced as substrate to the mixture and incubated for 30 minutes at 37° C. The reaction was stopped by a 5-minute incubation at 90° C. and the resultant glucose production is detected using Sigma's Glucose GO Kit. Percent inhibition was then plotted as a function of concentration for each test compound. The IC50 was determined using a 4-PL curve fit and serves as the measure of relative inhibition of each test compound (see Table 3).

In test [5] the target is rat sucrase (partially purified alpha-glucosidase from intestinal rat powder) (Rattus norvegicus, UniProt P23739). The experiment in a line: Intestinal alpha-glucosidase assay, sucrose substrate (Glucose GO Kit). The method, then: as §1
Setting [6] is: Glucosidase 2, read-out: Glu2 IC50.

T1 sequence (O08795 15-521): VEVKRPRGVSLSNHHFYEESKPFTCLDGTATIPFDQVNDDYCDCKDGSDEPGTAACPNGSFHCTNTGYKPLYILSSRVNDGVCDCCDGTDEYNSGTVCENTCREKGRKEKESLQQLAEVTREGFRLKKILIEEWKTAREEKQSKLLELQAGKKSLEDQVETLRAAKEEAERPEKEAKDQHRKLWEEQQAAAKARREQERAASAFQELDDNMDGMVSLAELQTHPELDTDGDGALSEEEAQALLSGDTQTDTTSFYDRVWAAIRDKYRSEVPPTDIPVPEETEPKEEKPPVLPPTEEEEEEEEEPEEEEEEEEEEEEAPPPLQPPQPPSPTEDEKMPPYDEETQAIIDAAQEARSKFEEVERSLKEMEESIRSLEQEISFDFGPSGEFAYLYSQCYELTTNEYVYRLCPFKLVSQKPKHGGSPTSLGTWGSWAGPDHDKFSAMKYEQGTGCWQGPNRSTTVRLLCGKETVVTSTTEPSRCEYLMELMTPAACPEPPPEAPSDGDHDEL
T1 sequence (Q8BHN3 33-944): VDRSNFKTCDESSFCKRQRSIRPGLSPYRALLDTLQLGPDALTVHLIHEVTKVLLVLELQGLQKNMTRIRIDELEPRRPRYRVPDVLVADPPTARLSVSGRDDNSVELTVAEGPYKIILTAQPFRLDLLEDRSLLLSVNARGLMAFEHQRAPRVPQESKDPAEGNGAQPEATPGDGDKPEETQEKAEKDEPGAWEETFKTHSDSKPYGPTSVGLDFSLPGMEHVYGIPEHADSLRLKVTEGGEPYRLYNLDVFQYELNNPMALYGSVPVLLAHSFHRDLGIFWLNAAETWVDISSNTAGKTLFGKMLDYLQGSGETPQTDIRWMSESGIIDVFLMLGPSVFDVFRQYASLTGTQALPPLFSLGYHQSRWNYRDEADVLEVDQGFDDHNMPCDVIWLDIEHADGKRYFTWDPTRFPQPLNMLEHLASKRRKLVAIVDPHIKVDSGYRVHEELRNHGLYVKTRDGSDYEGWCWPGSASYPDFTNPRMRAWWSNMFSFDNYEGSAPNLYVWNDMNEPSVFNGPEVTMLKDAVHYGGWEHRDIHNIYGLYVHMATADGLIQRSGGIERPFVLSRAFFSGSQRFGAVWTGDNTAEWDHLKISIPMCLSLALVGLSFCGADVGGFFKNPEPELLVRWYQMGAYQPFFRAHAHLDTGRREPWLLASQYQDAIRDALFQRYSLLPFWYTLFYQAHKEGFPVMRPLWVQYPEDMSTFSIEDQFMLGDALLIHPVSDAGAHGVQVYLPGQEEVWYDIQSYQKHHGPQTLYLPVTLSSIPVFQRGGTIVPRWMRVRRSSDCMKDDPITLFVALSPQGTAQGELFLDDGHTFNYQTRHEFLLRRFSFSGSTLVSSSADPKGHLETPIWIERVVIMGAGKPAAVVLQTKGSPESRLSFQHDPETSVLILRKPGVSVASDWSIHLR
Sequence of rat sucrase (partially purified alpha-glucosidase from intestinal rat powder) (P23739 whole entry): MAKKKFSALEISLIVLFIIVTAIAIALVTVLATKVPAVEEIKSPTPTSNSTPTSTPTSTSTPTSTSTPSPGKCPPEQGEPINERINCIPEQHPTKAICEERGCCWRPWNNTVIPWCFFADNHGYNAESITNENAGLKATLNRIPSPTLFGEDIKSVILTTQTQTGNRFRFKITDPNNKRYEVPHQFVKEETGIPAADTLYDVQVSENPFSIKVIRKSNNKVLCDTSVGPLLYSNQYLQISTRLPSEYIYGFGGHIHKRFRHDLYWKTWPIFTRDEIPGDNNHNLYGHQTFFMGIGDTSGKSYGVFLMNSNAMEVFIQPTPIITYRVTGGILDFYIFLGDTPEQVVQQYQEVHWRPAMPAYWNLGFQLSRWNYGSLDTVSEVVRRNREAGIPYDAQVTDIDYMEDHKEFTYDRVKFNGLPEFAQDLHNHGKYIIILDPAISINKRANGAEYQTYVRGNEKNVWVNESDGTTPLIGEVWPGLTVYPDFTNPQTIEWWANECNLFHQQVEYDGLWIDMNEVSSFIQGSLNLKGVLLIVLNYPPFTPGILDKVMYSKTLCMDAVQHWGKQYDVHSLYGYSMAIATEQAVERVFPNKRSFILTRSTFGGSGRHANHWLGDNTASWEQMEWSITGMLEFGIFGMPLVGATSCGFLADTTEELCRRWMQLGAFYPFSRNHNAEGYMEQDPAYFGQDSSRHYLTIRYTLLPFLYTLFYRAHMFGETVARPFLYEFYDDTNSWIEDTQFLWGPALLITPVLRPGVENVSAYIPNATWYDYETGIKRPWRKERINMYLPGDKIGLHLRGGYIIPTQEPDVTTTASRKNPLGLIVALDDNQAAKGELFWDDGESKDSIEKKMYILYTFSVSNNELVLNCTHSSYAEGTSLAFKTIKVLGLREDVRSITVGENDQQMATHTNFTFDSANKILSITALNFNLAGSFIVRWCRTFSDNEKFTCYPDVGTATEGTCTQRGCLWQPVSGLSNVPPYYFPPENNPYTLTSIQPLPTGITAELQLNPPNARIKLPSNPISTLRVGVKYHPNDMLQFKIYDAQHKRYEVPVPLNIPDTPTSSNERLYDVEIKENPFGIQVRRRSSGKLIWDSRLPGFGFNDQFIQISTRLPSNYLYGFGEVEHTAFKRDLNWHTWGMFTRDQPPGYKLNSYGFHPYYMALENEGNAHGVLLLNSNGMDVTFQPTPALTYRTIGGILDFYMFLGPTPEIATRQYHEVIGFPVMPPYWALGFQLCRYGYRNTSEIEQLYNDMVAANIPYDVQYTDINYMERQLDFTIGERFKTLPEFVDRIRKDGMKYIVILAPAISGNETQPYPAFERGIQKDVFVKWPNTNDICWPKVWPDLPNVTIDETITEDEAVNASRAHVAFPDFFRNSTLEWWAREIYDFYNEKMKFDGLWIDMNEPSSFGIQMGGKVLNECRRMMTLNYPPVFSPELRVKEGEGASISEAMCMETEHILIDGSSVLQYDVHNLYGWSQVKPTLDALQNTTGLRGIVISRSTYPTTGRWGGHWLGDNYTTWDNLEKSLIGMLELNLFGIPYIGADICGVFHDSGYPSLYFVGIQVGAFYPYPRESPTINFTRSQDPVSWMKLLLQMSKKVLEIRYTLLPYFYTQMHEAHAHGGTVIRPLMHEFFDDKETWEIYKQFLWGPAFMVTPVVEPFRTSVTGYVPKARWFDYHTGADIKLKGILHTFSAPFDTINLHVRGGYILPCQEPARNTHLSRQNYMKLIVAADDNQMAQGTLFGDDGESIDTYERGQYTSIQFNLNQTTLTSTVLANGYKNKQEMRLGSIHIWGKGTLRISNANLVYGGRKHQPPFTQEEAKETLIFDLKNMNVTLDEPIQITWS

Consider `Cc1cc(NCc2ccc(CN3C[C@H](O)[C@@H](O)[C@H](O)[C@H]3CO)cc2)cc(-c2cccnn2)c1` [Compound 1052, (2R,3R,4R,5S)-2-(hydroxymethyl)-1-{[4-({[3-methyl-5-(pyridazin-3-yl)phenyl]amino}methyl)phenyl]methyl}piperidine-3,4,5-trio], for which the pIC50 – broadly, −log10 of the IC50, conventionally taken in molar units – was 6.75 in test [1] (setting [6]); 6.82 in test [2]; 4.07 in test [3]; 7.85 in test [4]; 7.22 in test [5].
The matching figures for `CS(=O)(=O)c1cc(NCc2ccc(CN3C[C@H](O)[C@@H](O)[C@H](O)[C@H]3CO)cc2)cc(-c2cccnn2)c1` [Compound 1058, (2R,3R,4R,5S)-2-(hydroxymethyl)-1-{[4-({[3-methanesulfonyl-5-(pyridazin-3-yl)phenyl]amino}methyl)phenyl]methyl}piperidine-3,4,5-triol]: 6.94, 7.11, below 4.00, 8.10 and 7.34.
For `O=[N+]([O-])c1cc(N2CCOCC2)ccc1NCc1cccc(CN2C[C@H](O)[C@@H](O)[C@H](O)[C@H]2CO)c1` [Compound 1067, (2R,3R,4R,5S)-2-(hydroxymethyl)-1-{[3-({[4-(morpholin-4-yl)-2-nitrophenyl]amino}methyl)phenyl]methyl}piperidine-3,4,5-triol], in that order: 4.89, 6.37, 5.43, 7.09 and 7.10.
For `OC[C@@H]1[C@@H](O)[C@H](O)[C@@H](O)CN1Cc1ccc(CNc2ccc(N3CCOCC3)cc2)cc1` [Compound 1068], in that order: 5.80, 6.41, below 4.00, 7.31 and 6.85.
On to `OC[C@@H]1[C@@H](O)[C@H](O)[C@@H](O)CN1CCc1ccc(CCNc2cc(Cl)cc(-c3ncon3)c2)cc1` [Compound 1113, (2R,3R,4R,5S)-1-{2-[4-(2-{[3-chloro-5-(1,2,4-oxadiazol-3-yl)phenyl]amino}ethyl)phenyl]ethyl}-2-(hydroxymethyl)piperidine-3,4,5-triol], for which the pIC50 was 6.53 in test [1]; 6.42 in test [2]; 5.20 in test [3]; 7.70 in test [4]; 7.13 in test [5].
With `CCCc1nc(-c2cc(Cl)cc(NCCc3ccc(CCN4C[C@H](O)[C@@H](O)[C@H](O)[C@H]4CO)cc3)c2)no1` [Compound 1123, (2R,3R,4R,5S)-1-{2-[4-(2-{[3-chloro-5-(5-propyl-1,2,4-oxadiazol-3-yl)phenyl]amino}ethyl)phenyl]ethyl}-2-(hydroxymethyl)piperidine-3,4,5-triol], the pIC50 is 6.48 in test [1] (setting [6]); 6.15 in test [2]; 6.20 in test [3]; 6.36 in test [4]; 5.55 in test [5].
For `COC(OC)c1cc(NCCCCCCN2C[C@H](O)[C@@H](O)[C@H](O)[C@H]2CO)cc(-c2ncccn2)c1` [Compound 1124, (2R,3R,4R,5S)-1-(6-{[3-(dimethoxymethyl)-5-(pyrimidin-2-yl)phenyl]amino}hexyl)-2-(hydroxymethyl)piperidine-3,4,5-triol], in that order: 7.74, 7.44, 5.52, 7.64 and 6.83.
In the case of `CC(=O)Nc1cc(NCCCCCCN2C[C@H](O)[C@@H](O)[C@H](O)[C@H]2CO)cc(-c2ncccn2)c1` [Compound 1125, N-[3-(pyrimidin-2-yl)-5-({6-[(2R,3R,4R,5S)-3,4,5-trihydroxy-2-(hydroxymethyl)piperidin-1-yl]hexyl}amino)phenyl]acetamide], the pIC50 in test [1] (setting [6]) is 7.72; in test [2], 7.10; in test [3], 5.01; in test [4], 7.82; in test [5], 7.04.

The values above are taken from patent publication US20250197372A1 (priority 2020, published 2025).
